Legend:
P. infestans = assay: microbe, parasite or virus in culture; assay type: cell-based, Phytophthora infestans
Paecilomyces variotii = assay: Growth test in microtiter plates, HA medium, 24 h, visual evaluation; assay type: cell-based; parameters: key: +: kein Wachstum im Vergleich zur Wachstumskontrolle; -: Wachstum wie Wachstumskontrolle
Candida albicans = assay: as above; assay type: cell-based; parameters: key: +: kein Wachstum im Vergleich zur Wachstumskontrolle; -: Wachstum wie Wachstumskontrolle
Penicillium notatum = assay: as above; assay type: cell-based; parameters: key: +: kein Wachstum im Vergleich zur Wachstumskontrolle; -: Wachstum wie Wachstumskontrolle
Setaria italica = assay: Crop plant growth test, seeds on filter discs, 4 days, visual evaluation; assay type: in vivo
Procedure: (§1) Testsubstanzen und Kontrollen werden auf Filterrondellen in Mikrotiterplatten (48 well) vorgelegt und das verwendete Lösungsmittel (DMSO) über Lyophilisation entfernt. Anschließend werden ca. 12 Samen pro Vertiefung (Setaria italical Lepidium sativum) zugeben, mit 200 µl sterilem Leitungswasser pro Vertiefung versetzt, mit einem Deckel versehen und in einer feuchten Kammer für 4 Tage im Pflanzenbrutschrank inkubiert (16h-Licht-8h-Dunkel-Rhythmus). Die Auswertung des Tests erfolgt optisch (+: mind. 75 % Wachstumshemmung im Vergleich zur Kontrolle, -: weniger als 75 % Wachstumshemmung im Vergleich zur Kontrolle.

Lepidium sativum = assay: as above; assay type: in vivo
Procedure: as §1

Botrytis cinerea = assay: microbe, parasite or virus in culture; assay type: cell-based
M. grisea CM = assay: microbe, parasite or virus in culture; assay type: cell-based, Magnaporthe grisea
Mucor miehei = assay: Growth test in microtiter plates, HA medium, 24 h, visual evaluation; assay type: cell-based; parameters: key to Aktivität gegenüber M. miehei: +: kein Wachstum im Vergleich zur Wachstumskontrolle; -: Wachstum wie Wachstumskontrolle
M. grisea H2O = assay: microbe, parasite or virus in culture; assay type: cell-based, Magnaporthe grisea

Structure (SMILES)	Aktivität gegenüber P. infestans (P. infestans; 5µg/mL)	Aktivität gegenüber P. infestans (P. infestans; 10µg/mL)	Aktivität gegenüber P. infestans (P. infestans; 25µg/mL)	Aktivität gegenüber P. infestans (P. infestans; 50µg/mL)	Wirksamkeit gegenüber P. infestans (P. infestans)	Aktivität gegenüber P. variotii (Paecilomyces variotii; 10µg/mL)	Aktivität gegenüber P. variotii (Paecilomyces variotii; 50µg/mL)	Aktivität gegenüber C. albicans (Candida albicans; 10µg/mL)	Aktivität gegenüber C. albicans (Candida albicans; 50µg/mL)	Aktivität gegenüber P. notatum (Penicillium notatum; 10µg/mL)	Aktivität gegenüber P. notatum (Penicillium notatum; 50µg/mL)	Aktivität gegenüber Nutzpflanzen: S. italica (Setaria italica; 10µg/R)	Aktivität gegenüber Nutzpflanzen: S. italica (Setaria italica; 20µg/R)	Aktivität gegenüber Nutzpflanzen: S. italica (Setaria italica; 50µg/R)	Aktivität gegenüber Nutzpflanzen: L. sativum (Lepidium sativum; 10µg/R)	Aktivität gegenüber Nutzpflanzen: L. sativum (Lepidium sativum; 20µg/R)	Aktivität gegenüber Nutzpflanzen: L. sativum (Lepidium sativum; 50µg/R)	Aktivität gegenüber B. cinerea (Botrytis cinerea; 5µg/mL)	Aktivität gegenüber B. cinerea (Botrytis cinerea; 10µg/mL)	Aktivität gegenüber B. cinerea (Botrytis cinerea; 25µg/mL)	other results
COc1cc(C)c([Se]c2cc(OC)c(OC)cc2C)cc1OC [Verbindung 27, Bis(3,4-dimethoxy-6-methylphenyl)selen]	- (zwischen 0 und 25 % der Sporen nicht gekeimt)	- (zwischen 0 und 25 % der Sporen nicht gekeimt)	- (zwischen 0 und 25 % der Sporen nicht gekeimt)	- (zwischen 0 und 25 % der Sporen nicht gekeimt)	keine Wirkung	-	-	-	-	-	-	+ (mind. 75 % Wachstumshemmung im Vergleich zur Kontrolle)	- (weniger als 75 % Wachstumshemmung im Vergleich zur Kontrolle)	+ (mind. 75 % Wachstumshemmung im Vergleich zur Kontrolle)	- (weniger als 75 % Wachstumshemmung im Vergleich zur Kontrolle)	- (weniger als 75 % Wachstumshemmung im Vergleich zur Kontrolle)	- (weniger als 75 % Wachstumshemmung im Vergleich zur Kontrolle)	- (key: +++: mehr als 75 % der Sporen nicht gekeimt; ++: zwischen 50 und 75 % der Sporen nicht gekeimt; +: zwischen 25 und 50 % der Sporen nicht gekeimt; -: zwischen 0 und 25 % der Sporen nicht gekeimt)	- (key: +++: mehr als 75 % der Sporen nicht gekeimt; ++: zwischen 50 und 75 % der Sporen nicht gekeimt; +: zwischen 25 und 50 % der Sporen nicht gekeimt; -: zwischen 0 und 25 % der Sporen nicht gekeimt)	- (key: +++: mehr als 75 % der Sporen nicht gekeimt; ++: zwischen 50 und 75 % der Sporen nicht gekeimt; +: zwischen 25 und 50 % der Sporen nicht gekeimt; -: zwischen 0 und 25 % der Sporen nicht gekeimt)	Aktivität gegenüber B. cinerea (Botrytis cinerea; 50µg/mL): - (key: +++: mehr als 75 % der Sporen nicht gekeimt; ++: zwischen 50 und 75 % der Sporen nicht gekeimt; +: zwischen 25 und 50 % der Sporen nicht gekeimt; -: zwischen 0 und 25 % der Sporen nicht gekeimt); Aktivität gegenüber M. grisea CM (M. grisea CM; 5µg/mL): - (zwischen 0 und 25 % der Sporen nicht gekeimt); Aktivität gegenüber M. grisea CM (M. grisea CM; 10µg/mL): - (zwischen 0 und 25 % der Sporen nicht gekeimt); Aktivität gegenüber M. grisea CM (M. grisea CM; 25µg/mL): + (zwischen 25 und 50 % der Sporen nicht gekeimt); Aktivität gegenüber M. grisea CM (M. grisea CM; 50µg/mL): + (zwischen 25 und 50 % der Sporen nicht gekeimt); Aktivität gegenüber M. miehei (Mucor miehei; 10µg/mL): -; Aktivität gegenüber M. miehei (Mucor miehei; 50µg/mL): -; Aktivität gegenüber M. grisea H2O (M. grisea H2O; 5µg/mL): - (zwischen 0 und 25 % der Sporen nicht gekeimt); Aktivität gegenüber M. grisea H2O (M. grisea H2O; 10µg/mL): - (zwischen 0 und 25 % der Sporen nicht gekeimt); Aktivität gegenüber M. grisea H2O (M. grisea H2O; 25µg/mL): - (zwischen 0 und 25 % der Sporen nicht gekeimt); Aktivität gegenüber M. grisea H2O (M. grisea H2O; 50µg/mL): + (zwischen 25 und 50 % der Sporen nicht gekeimt)
COc1cc(C)c([Se]c2c(C)cc(OC)c(OC)c2OC)c(OC)c1OC [Verbindung 28, Bis(6-methyl-2,3,4-trimethoxyphenyl)selen]	- (zwischen 0 und 25 % der Sporen nicht gekeimt)	- (zwischen 0 und 25 % der Sporen nicht gekeimt)	- (zwischen 0 und 25 % der Sporen nicht gekeimt)	- (zwischen 0 und 25 % der Sporen nicht gekeimt)	keine Wirkung	-	-	-	-	-	-	- (weniger als 75 % Wachstumshemmung im Vergleich zur Kontrolle)	- (weniger als 75 % Wachstumshemmung im Vergleich zur Kontrolle)	+ (mind. 75 % Wachstumshemmung im Vergleich zur Kontrolle)	- (weniger als 75 % Wachstumshemmung im Vergleich zur Kontrolle)	- (weniger als 75 % Wachstumshemmung im Vergleich zur Kontrolle)	- (weniger als 75 % Wachstumshemmung im Vergleich zur Kontrolle)	- (key: +++: mehr als 75 % der Sporen nicht gekeimt; ++: zwischen 50 und 75 % der Sporen nicht gekeimt; +: zwischen 25 und 50 % der Sporen nicht gekeimt; -: zwischen 0 und 25 % der Sporen nicht gekeimt)	- (key: +++: mehr als 75 % der Sporen nicht gekeimt; ++: zwischen 50 und 75 % der Sporen nicht gekeimt; +: zwischen 25 und 50 % der Sporen nicht gekeimt; -: zwischen 0 und 25 % der Sporen nicht gekeimt)	- (key: +++: mehr als 75 % der Sporen nicht gekeimt; ++: zwischen 50 und 75 % der Sporen nicht gekeimt; +: zwischen 25 und 50 % der Sporen nicht gekeimt; -: zwischen 0 und 25 % der Sporen nicht gekeimt)	Aktivität gegenüber B. cinerea (Botrytis cinerea; 50µg/mL): - (key: +++: mehr als 75 % der Sporen nicht gekeimt; ++: zwischen 50 und 75 % der Sporen nicht gekeimt; +: zwischen 25 und 50 % der Sporen nicht gekeimt; -: zwischen 0 und 25 % der Sporen nicht gekeimt); Aktivität gegenüber M. grisea CM (M. grisea CM; 5µg/mL): +++ (mehr als 75 % der Sporen nicht gekeimt); Aktivität gegenüber M. grisea CM (M. grisea CM; 10µg/mL): +++ (mehr als 75 % der Sporen nicht gekeimt); Aktivität gegenüber M. grisea CM (M. grisea CM; 25µg/mL): +++ (mehr als 75 % der Sporen nicht gekeimt); Aktivität gegenüber M. grisea CM (M. grisea CM; 50µg/mL): +++ (mehr als 75 % der Sporen nicht gekeimt); Aktivität gegenüber M. miehei (Mucor miehei; 10µg/mL): -; Aktivität gegenüber M. miehei (Mucor miehei; 50µg/mL): -; Aktivität gegenüber M. grisea H2O (M. grisea H2O; 5µg/mL): +++ (mehr als 75 % der Sporen nicht gekeimt); Aktivität gegenüber M. grisea H2O (M. grisea H2O; 10µg/mL): +++ (mehr als 75 % der Sporen nicht gekeimt); Aktivität gegenüber M. grisea H2O (M. grisea H2O; 25µg/mL): +++ (mehr als 75 % der Sporen nicht gekeimt); Aktivität gegenüber M. grisea H2O (M. grisea H2O; 50µg/mL): +++ (mehr als 75 % der Sporen nicht gekeimt)
